This note sets out measurements from ChEMBL document CHEMBL1148353, “Development of potent bifunctional endomorphin-2 analogues with mixed mu-/delta-opioid agonist and delta-opioid antagonist properties” (J Med Chem, 2004).

One experiment deals with Mu-type opioid receptor (Rattus norvegicus, UniProt P33535). The experiment in a line: Binding affinity against rat brain Opioid receptor mu 1 using [3H]DAMGO radioligand.
For the next experiment, the species on record is Cavia porcellus. The experiment in a line: In vitro inhibitory concentration against electrically induced twitches in guinea pig ileum. The experiment is classed as functional.
The species entered for the next experiment is Mus musculus. The experiment in a line: In vitro inhibitory concentration against electrically induced twitches in mouse vas deferens. It counts as functional.
Experiment [1] has as its target Delta-type opioid receptor (Rattus norvegicus, UniProt P33533). Briefly: Binding affinity against rat brain opioid receptor delta 1 using [3H]DPDPE radioligand.
In experiment [2] the target is Opioid receptors; mu & delta (Rattus norvegicus) (UniProt P33533+P33535). Briefly: Ratio of binding affinity against rat brain delta opioid receptor to that of mu opioid receptor.

Where a SMILES comes first, the peptide text is derived from it. [ ]: non-standard residue; d: D form. The star is where a group is joined. Dmt = Cc1cc(O)cc(C)c1C[C@H](N)C(=O)O; NHPhenethyl = c1ccc(CCN*)cc1; NHBn = c1ccc(CN*)cc1; NHPh = c1ccc(N*)cc1; NHtBu = CC(C)(C)N*

Chain of Delta-type opioid receptor (P33533 whole entry): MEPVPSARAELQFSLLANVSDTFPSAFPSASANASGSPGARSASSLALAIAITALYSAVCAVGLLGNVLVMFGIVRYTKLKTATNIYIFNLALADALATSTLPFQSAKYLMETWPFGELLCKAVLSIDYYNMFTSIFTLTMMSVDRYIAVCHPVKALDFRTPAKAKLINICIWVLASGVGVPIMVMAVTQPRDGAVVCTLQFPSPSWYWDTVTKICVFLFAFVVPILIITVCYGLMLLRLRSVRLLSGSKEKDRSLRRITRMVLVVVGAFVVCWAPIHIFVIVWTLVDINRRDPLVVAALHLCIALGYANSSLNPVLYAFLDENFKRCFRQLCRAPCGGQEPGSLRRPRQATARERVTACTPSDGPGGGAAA
Chain of Opioid receptors; mu & delta (Rattus norvegicus) (P33533 whole entry, looked up): as the sequence (P33533 whole entry) above
Chain of Opioid receptors; mu & delta (Rattus norvegicus) (P33535 whole entry, looked up): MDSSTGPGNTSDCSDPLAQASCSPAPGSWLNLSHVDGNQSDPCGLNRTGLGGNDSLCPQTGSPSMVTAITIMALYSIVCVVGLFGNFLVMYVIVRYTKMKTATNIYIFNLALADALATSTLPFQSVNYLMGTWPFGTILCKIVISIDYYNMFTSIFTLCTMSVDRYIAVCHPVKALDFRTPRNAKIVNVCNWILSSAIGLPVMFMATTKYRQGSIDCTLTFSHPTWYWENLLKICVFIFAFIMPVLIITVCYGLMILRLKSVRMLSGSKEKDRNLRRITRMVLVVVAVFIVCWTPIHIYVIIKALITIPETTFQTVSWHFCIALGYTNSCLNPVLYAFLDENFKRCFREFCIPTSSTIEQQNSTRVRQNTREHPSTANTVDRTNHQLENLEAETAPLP
Chain of Mu-type opioid receptor (P33535 whole entry): as the sequence (P33535 whole entry, looked up) above

The Ki is a measure of affinity in units of concentration, obtained from inhibition or displacement. Higher therefore signals lower affinity. Usually IC50 stands for the concentration at which inhibition is half-maximal. High values mean weaker potency in that assay, low ones greater potency in that assay. With `Cc1cc(O)cc(C)c1C[C@H](N)C(=O)N1CCC[C@H]1C(=O)N[C@@H](Cc1ccccc1)C(=O)Nc1ccccc1` (H-[Dmt]-Pro-Phe-NHPh), the figures for the Ki (on Mu-type opioid receptor; in experiment [1]) were 1.11 nM and 20.6 nM, respectively. Besides, the IC50 in the experiment filed under Cavia porcellus was 37.7 nM; in the experiment filed under Mus musculus, more than 10000 nM.
`Cc1cc(O)cc(C)c1C[C@H](N)C(=O)N1CCC[C@H]1C(=O)N[C@@H](Cc1ccccc1)C(=O)Nc1ccccn1`: the Ki worked out at 0.13 nM at Mu-type opioid receptor and 157 nM in experiment [1]. The IC50 in the experiment listed under Cavia porcellus was 15 nM; in the experiment listed under Mus musculus it was more than 10000 nM.
With `N[C@@H](Cc1ccc(O)cc1)C(=O)N1CCC[C@H]1C(=O)N[C@@H](Cc1ccccc1)C(=O)NCCc1ccccc1` (H-Tyr-Pro-Phe-NHPhenethyl), the Ratio in experiment [2] was 324. In addition, the results for the Ki (on Mu-type opioid receptor; in experiment [1]) were 13.3 nM and 4310 nM, respectively.
As to `N[C@@H](Cc1ccc(O)cc1)C(=O)N1CCC[C@H]1C(=O)N[C@@H](Cc1ccccc1)C(=O)NC1CCCCC1`, in experiment [2], the Ratio was determined as 1400. Besides, the Ki at Mu-type opioid receptor turned out to be 5.79 nM; in experiment [1], 8110 nM.
As to `Cc1cc(O)cc(C)c1C[C@H](N)C(=O)N1CCC[C@H]1C(=O)N[C@@H](Cc1ccccc1)C(=O)Nc1cccc2cccnc12`, the Ki was determined as 0.49 nM on Mu-type opioid receptor and 33.1 nM in experiment [1]. The IC50 in the experiment filed under Cavia porcellus was found to be 445 nM; in the experiment filed under Mus musculus, 2980 nM.
Turning to `NC(=O)[C@H](Cc1ccccc1)NC(=O)[C@@H]1CCCN1C(=O)[C@@H](N)Cc1ccc(O)cc1` (H-Tyr-Pro-Phe-NH2), in experiment [2], the Ratio came out at 343. In addition, the Ki at Mu-type opioid receptor came to 46.3 nM; in experiment [1], 15900 nM.
In the case of `Cc1cc(O)cc(C)c1C[C@H](N)C(=O)N1CCC[C@H]1C(=O)N[C@@H](Cc1ccccc1)C(=O)Nc1ccncc1`, the Ki at Mu-type opioid receptor was found to be 0.36 nM; in experiment [1] it was 52.7 nM. For the same compound, the IC50 turned out to be 11.8 nM in the experiment filed under Cavia porcellus and 10000 nM in the experiment filed under Mus musculus.
For the compound `Cc1cc(O)cc(C)c1C[C@H](N)C(=O)N1CCC[C@H]1C(=O)N[C@@H](Cc1ccccc1)C(=O)N[C@@H](Cc1ccccc1)C(N)=O`, the Ratio in experiment [2] came to 188. The Ki at Mu-type opioid receptor was found to be 0.15 nM; in experiment [1], 28.2 nM. For the same compound, the IC50 in the experiment listed under Cavia porcellus turned out to be 0.07 nM; in the experiment filed under Mus musculus, 1.87 nM.
On to `N[C@@H](Cc1ccc(O)cc1)C(=O)N1CCC[C@H]1C(=O)N[C@@H](Cc1ccccc1)C(=O)Nc1ccncc1`, for which the Ratio in experiment [2] stood at 521. Moreover, the Ki worked out at 48.2 nM at Mu-type opioid receptor and 25100 nM in experiment [1].
In the case of `Cc1cc(O)cc(C)c1C[C@H](N)C(=O)N1CCC[C@H]1C(=O)N[C@@H](Cc1ccccc1)C(=O)Nc1cccnc1`, the Ki is 0.17 nM at Mu-type opioid receptor and 288 nM in experiment [1]. Moreover, the figures for the IC50 in the experiment filed under Cavia porcellus and in the experiment filed under Mus musculus were 72.8 nM and more than 10000 nM, respectively.
`Cc1cc(O)cc(C)c1C[C@H](N)C(=O)N1CCC[C@H]1C(=O)N[C@@H](Cc1ccccc1)C(=O)Nc1cccc2ncccc12`: the Ratio in experiment [2] amounted to 283. Moreover, the values for the Ki (on Mu-type opioid receptor; in experiment [1]) were 0.11 nM and 30 nM, respectively. Besides, the concentration for half-maximal inhibition (IC50) in the experiment filed under Cavia porcellus came to 0.26 nM; in the experiment filed under Mus musculus, 0.616 nM.
As to `N[C@@H](Cc1ccc(O)cc1)C(=O)N1CCC[C@H]1C(=O)N[C@@H](Cc1ccccc1)C(=O)NC1C2C[C@H]3C[C@@H](C2)C[C@@H]1C3` (some centres undefined), the Ratio in experiment [2] was found to be 844. In addition, the Ki at Mu-type opioid receptor came out at 6.59 nM; in experiment [1], 5560 nM.
As to `Cc1cc(O)cc(C)c1C[C@H](N)C(=O)N1CCC[C@H]1C(=O)N[C@@H](Cc1ccccc1)C(=O)Nc1cccc2cnccc12`, the Ki stood at 0.19 nM on Mu-type opioid receptor and 98.3 nM in experiment [1]. In addition, the half-inhibitory concentration (IC50) is 0.94 nM in the experiment listed under Cavia porcellus and more than 10000 nM in the experiment listed under Mus musculus.
For the compound `CC(C)(C)NC(=O)[C@H](Cc1ccccc1)NC(=O)[C@@H]1CCCN1C(=O)[C@@H](N)Cc1ccc(O)cc1` (H-Tyr-Pro-Phe-NHtBu), in experiment [2], the Ratio turned out to be 680. Also, the Ki turned out to be 19.6 nM at Mu-type opioid receptor and 13300 nM in experiment [1].
Consider `Cc1cc(O)cc(C)c1C[C@H](N)C(=O)N1CCC[C@H]1C(=O)N[C@@H](Cc1ccccc1)C(=O)Nc1cccc2ccccc12`, for which the Ratio in experiment [2] amounted to 68. The IC50 is 0.49 nM in the experiment listed under Cavia porcellus and 5.47 nM in the experiment listed under Mus musculus. Besides, the Ki in experiment [1] was 19.9 nM.
As to `Cc1cc(O)cc(C)c1C[C@H](N)C(=O)N1CCC[C@H]1C(=O)N[C@@H](Cc1ccccc1)C(=O)Nc1ccc2ncccc2c1`, the Ki was determined as 0.22 nM at Mu-type opioid receptor and 46.6 nM in experiment [1]. Besides, the IC50 was 6.21 nM in the experiment filed under Cavia porcellus and more than 10000 nM in the experiment listed under Mus musculus.
For `Cc1cc(O)cc(C)c1C[C@H](N)C(=O)N1CCC[C@H]1C(=O)N[C@@H](Cc1ccccc1)C(=O)NCCc1ccccc1` (H-[Dmt]-Pro-Phe-NHPhenethyl), the Ratio in experiment [2] amounted to 35. The Ki at Mu-type opioid receptor turned out to be 0.51 nM; in experiment [1], 18 nM. In addition, the IC50 in the experiment filed under Cavia porcellus is 5.03 nM; in the experiment filed under Mus musculus, more than 10000 nM.
`N[C@@H](Cc1ccc(O)cc1)C(=O)N1CCC[C@H]1C(=O)N[C@@H](Cc1ccccc1)C(=O)Nc1ccccn1`: in experiment [2], the Ratio worked out at 742. Besides, the Ki worked out at 26.5 nM at Mu-type opioid receptor and 19700 nM in experiment [1].
On to `N[C@@H](Cc1ccc(O)cc1)C(=O)N1CCC[C@H]1C(=O)N[C@@H](Cc1ccccc1)C(=O)Nc1cccc2cnccc12`, for which, in experiment [2], the Ratio was determined as 57. In addition, the Ki was found to be 61.1 nM on Mu-type opioid receptor and 3480 nM in experiment [1].
On to `Cc1cc(O)cc(C)c1C[C@H](N)C(=O)N1CCC[C@H]1C(=O)N[C@@H](Cc1ccccc1)C(=O)Nc1cnc2ccccc2c1`, for which the Ratio in experiment [2] came to 577. Besides, the Ki came out at 0.33 nM at Mu-type opioid receptor and 190 nM in experiment [1]. Further, the IC50 in the experiment listed under Cavia porcellus is 9.14 nM; in the experiment filed under Mus musculus, more than 10000 nM.
Turning to `N[C@@H](Cc1ccc(O)cc1)C(=O)N1CCC[C@H]1C(=O)N[C@@H](Cc1ccccc1)C(=O)NCc1ccccc1` (H-Tyr-Pro-Phe-NHBn), the Ratio in experiment [2] worked out at 80. Besides, the Ki was 21.6 nM at Mu-type opioid receptor and 1730 nM in experiment [1].
Take `Cc1cc(O)cc(C)c1C[C@H](N)C(=O)N1CCC[C@H]1C(=O)N[C@@H](Cc1ccccc1)C(N)=O` (H-[Dmt]-Pro-Phe-NH2): in experiment [2], the Ratio is 443. In addition, the Ki on Mu-type opioid receptor was 0.12 nM; in experiment [1] it was 53.2 nM. Further, the figures for the IC50 in the experiment listed under Cavia porcellus and in the experiment listed under Mus musculus were 2.33 nM and 113 nM, respectively.
`N[C@@H](Cc1ccc(O)cc1)C(=O)N1CCC[C@H]1C(=O)N[C@@H](Cc1ccccc1)C(=O)Nc1cccc2ncccc12`: in experiment [2], the Ratio was 3110. Besides, the Ki at Mu-type opioid receptor came out at 4.07 nM; in experiment [1], 12700 nM.
With `N[C@@H](Cc1ccc(O)cc1)C(=O)N1CCC[C@H]1C(=O)N[C@@H](Cc1ccccc1)C(=O)Nc1cccc2ccccc12`, the Ratio in experiment [2] amounted to 1510. For the same compound, the Ki on Mu-type opioid receptor amounted to 2.41 nM; in experiment [1], 3640 nM.
For the compound `N[C@@H](Cc1ccc(O)cc1)C(=O)N1CCC[C@H]1C(=O)N[C@@H](Cc1ccccc1)C(=O)Nc1cnc2ccccc2c1`, the Ratio in experiment [2] worked out at 333. The Ki on Mu-type opioid receptor amounted to 55.8 nM; in experiment [1], 18600 nM.
As to `N[C@@H](Cc1ccc(O)cc1)C(=O)N1CCC[C@H]1C(=O)N[C@@H](Cc1ccccc1)C(=O)Nc1ccc2ncccc2c1`, in experiment [2], the Ratio was found to be 136. The Ki on Mu-type opioid receptor amounted to 72.9 nM; in experiment [1], 9880 nM.
With `N[C@@H](Cc1ccc(O)cc1)C(=O)N1CCC[C@H]1C(=O)N[C@@H](Cc1ccccc1)C(=O)NC12C[C@H]3C[C@@H](C1)C[C@@H](C2)C3`, the Ratio in experiment [2] is 265. In addition, the Ki on Mu-type opioid receptor came to 23.6 nM; in experiment [1], 6260 nM.
As for `Cc1cc(O)cc(C)c1C[C@H](N)C(=O)N1CCC[C@H]1C(=O)N[C@@H](Cc1ccccc1)C(=O)NCc1ccccc1` (H-[Dmt]-Pro-Phe-NHBn), the Ki at Mu-type opioid receptor was 0.52 nM; in experiment [1], 13.8 nM. The results for the IC50 in the experiment filed under Cavia porcellus and in the experiment filed under Mus musculus were 22 nM and more than 10000 nM, respectively.
Consider `NC(=O)[C@H](Cc1ccccc1)NC(=O)[C@H](Cc1ccccc1)NC(=O)[C@@H]1CCCN1C(=O)[C@@H](N)Cc1ccc(O)cc1` [ENDOMORPHIN 2], for which the values for the IC50 in the experiment filed under Cavia porcellus and in the experiment filed under Mus musculus were 5.79 nM and 344 nM, respectively.
For the compound `N[C@@H](Cc1ccc(O)cc1)C(=O)N1CCC[C@H]1C(=O)N[C@@H](Cc1ccccc1)C(=O)Nc1cccc2cccnc12`, the Ratio in experiment [2] is 68. Moreover, the Ki was 249 nM on Mu-type opioid receptor and 17100 nM in experiment [1].
`N[C@@H](Cc1ccc(O)cc1)C(=O)N1CCC[C@H]1C(=O)N[C@@H](Cc1ccccc1)C(=O)Nc1ccccc1` (H-Tyr-Pro-Phe-NHPh): in experiment [2], the Ratio came out at 692. The Ki on Mu-type opioid receptor amounted to 33.5 nM; in experiment [1], 23200 nM.
`N[C@@H](Cc1ccc(O)cc1)C(=O)N1CCC[C@H]1C(=O)N[C@@H](Cc1ccccc1)C(=O)Nc1cccnc1`: in experiment [2], the Ratio is 400. For the same compound, the Ki on Mu-type opioid receptor stood at 48.5 nM; in experiment [1] it was 19400 nM.
